Data: patent US6689817B1, “Process for preparing guaifenesin tannate” (Jame Fine Chemicals, Inc., priority 2001, dated 2004)
Where two headings read alike, the source gives them in different places.

What was measured:
[1] = background statement, cited from earlier work; for solubility in alcohols: alcohols such as methanol, ethanol, isopropanol
[2] = Solubility in water and organic solvents (descriptive)
[3] = Methylene chloride solubility test of milled guaifenesin tannate powders (Example 4); assay type: physicochemical
Procedure: Two gram samples of finely milled guaifenesin tannate powders were taken from each of the products prepared in Examples 1-3. Each sample was mixed with 110 g of methylene chloride and was stirred for 10 minutes at ambient temperature. Each mixture was then filtered. The insoluble material was dried and weighed and the filtrate was evaporated to dryness and the residue was weighed The results were as follows: […]

Compound | solubility in alcohols [1] | solubility in water [1] | solubility in alcohols [2] | solubility in methylene chloride [2] | solubility in toluene [2] | solubility in water [2] | Insoluble Ppt. [3] | Soluble Ppt. [3] | also measured
COc1ccccc1OCC(O)CO (centres unmarked) [guaifenesin, 3-(2-methoxyphenoxy)-1,2-propanediol] | readily soluble | about 5 wt. % | soluble | soluble | sparingly soluble | soluble | – | – | –
O=C(OC[C@H]1O[C@@H](OC(=O)c2cc(O)c(O)c(OC(=O)c3cc(O)c(O)c(O)c3)c2)[C@H](OC(=O)c2cc(O)c(O)c(OC(=O)c3cc(O)c(O)c(O)c3)c2)[C@@H](OC(=O)c2cc(O)c(O)c(OC(=O)c3cc(O)c(O)c(O)c3)c2)[C@@H]1OC(=O)c1cc(O)c(O)c(OC(=O)c2cc(O)c(O)c(O)c2)c1)c1cc(O)c(O)c(OC(=O)c2cc(O)c(O)c(O)c2)c1 [tannic acid] | highly soluble | highly soluble | soluble | insoluble | insoluble | soluble | – | – | solubility in chloroform ([2]; chloroform): insoluble
guaifenesin tannate | – | – | – | – | – | – | – | – | solubility in methylene chloride (conclusion from Example 4) [3]: insoluble
guaifenesin tannate [Example 1] | – | – | – | – | – | – | – | – | Insoluble Ppt. ([3]; 2 g sample mixed with 110 g methylene chloride, stirred 10 minutes at ambient temperature, filtered, insoluble material dried and weighed): 1.94 g; Soluble Ppt. ([3]; 2 g sample mixed with 110 g methylene chloride, stirred 10 minutes at ambient temperature, filtrate evaporated to dryness, residue weighed): <8 mg
guaifenesin tannate [Example 2] | – | – | – | – | – | – | 1.95 g | <10 mg | –
guaifenesin tannate [Example 3] | – | – | – | – | – | – | 1.945 g | <7 mg | –
